Test results taken from US5677346A, “Treating urinary incontinence using (S)-desethyloxybutynin” (Sepracor, Inc., priority 1995, dated 1997).

Legend:
[1] = tested on: Ca channel (T + L, diltiazem site); assay type: binding, rat; settings: for percent inhibition of specific radioligand binding, Calcium (diltiazem): Table 8, 10^-5 M
[2] = tested on: human muscarinic receptor subtypes M1-M4; assay: Binding to human muscarinic receptor subtypes M1-M4, overall result
[3] = target: T1, human recombinant M2 muscarinic receptor (Homo sapiens, UniProt P08172); assay: biochemical; assay type: binding; settings: for inhibition at 0.1 µM: read-out: percent inhibition of specific radioligand binding M2H 10^-7 M; for inhibition at 10 µM: read-out: percent inhibition of specific radioligand binding M2H 10^-5 M
T1 construct: made in house; host or cells: SF9 insect cells infected with baculovirus (membranes)
T1 sequence (P08172 1-466): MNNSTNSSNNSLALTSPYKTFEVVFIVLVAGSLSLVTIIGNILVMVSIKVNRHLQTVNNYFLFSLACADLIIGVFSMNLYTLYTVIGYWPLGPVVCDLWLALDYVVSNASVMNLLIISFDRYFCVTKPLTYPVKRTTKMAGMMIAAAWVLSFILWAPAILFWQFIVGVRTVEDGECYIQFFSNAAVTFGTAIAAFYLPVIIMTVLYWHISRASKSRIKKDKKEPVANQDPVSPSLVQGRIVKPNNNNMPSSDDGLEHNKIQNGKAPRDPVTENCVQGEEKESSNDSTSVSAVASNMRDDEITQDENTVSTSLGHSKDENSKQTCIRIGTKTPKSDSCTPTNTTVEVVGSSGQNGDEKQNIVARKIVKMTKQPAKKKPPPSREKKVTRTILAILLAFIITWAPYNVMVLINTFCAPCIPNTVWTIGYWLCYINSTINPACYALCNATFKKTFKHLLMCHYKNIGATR

[4] = target: T2, human recombinant M4 muscarinic receptor (Homo sapiens, UniProt P08173); assay: biochemical; assay type: binding; settings: for inhibition at 10 µM: read-out: percent inhibition of specific radioligand binding M4H 10^-5 M; for inhibition at 0.1 µM: read-out: percent inhibition of specific radioligand binding M4H 10^-7 M; for inhibition at 0.001 µM: read-out: percent inhibition of specific radioligand binding M4H 10^-9 M
T2 construct: made in house; host or cells: SF9 insect cells infected with baculovirus (membranes)
T2 sequence (P08173 1-479): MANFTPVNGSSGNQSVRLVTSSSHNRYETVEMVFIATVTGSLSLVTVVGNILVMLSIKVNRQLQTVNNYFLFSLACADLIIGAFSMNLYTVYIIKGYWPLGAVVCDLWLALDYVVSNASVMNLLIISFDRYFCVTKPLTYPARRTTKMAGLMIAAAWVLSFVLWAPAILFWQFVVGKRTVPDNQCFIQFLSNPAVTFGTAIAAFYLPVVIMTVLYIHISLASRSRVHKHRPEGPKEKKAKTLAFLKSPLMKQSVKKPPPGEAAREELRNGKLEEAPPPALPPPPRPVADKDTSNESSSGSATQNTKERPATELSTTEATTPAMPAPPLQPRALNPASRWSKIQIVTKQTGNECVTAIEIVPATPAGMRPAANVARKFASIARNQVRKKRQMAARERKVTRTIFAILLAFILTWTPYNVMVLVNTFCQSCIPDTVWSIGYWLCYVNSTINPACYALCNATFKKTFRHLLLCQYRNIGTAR

[5] = tested on: Ca channel (T + L, verapamil site); assay: Binding to calcium channel, verapamil site ([3H]D 888, rat cerebral cortex); settings: for percent inhibition of specific radioligand binding, Calcium (verapamil): Table 8, 10^-5 M
[6] = target: T3, bladder muscarinic receptors (guinea pig bladder smooth muscle strips) (Cavia porcellus, UniProt H0W1Z3); assay: Carbachol-induced contraction of isolated bladder strips (antimuscarinic activity); settings: for Slope (Schild regression): Table 9, mean ± SE
T3 construct: isolated strips of guinea pig bladder smooth muscle; from tissue; host or cells: urinary bladder strips of male Hartley guinea pigs
T3 sequence (H0W1Z3 1-590): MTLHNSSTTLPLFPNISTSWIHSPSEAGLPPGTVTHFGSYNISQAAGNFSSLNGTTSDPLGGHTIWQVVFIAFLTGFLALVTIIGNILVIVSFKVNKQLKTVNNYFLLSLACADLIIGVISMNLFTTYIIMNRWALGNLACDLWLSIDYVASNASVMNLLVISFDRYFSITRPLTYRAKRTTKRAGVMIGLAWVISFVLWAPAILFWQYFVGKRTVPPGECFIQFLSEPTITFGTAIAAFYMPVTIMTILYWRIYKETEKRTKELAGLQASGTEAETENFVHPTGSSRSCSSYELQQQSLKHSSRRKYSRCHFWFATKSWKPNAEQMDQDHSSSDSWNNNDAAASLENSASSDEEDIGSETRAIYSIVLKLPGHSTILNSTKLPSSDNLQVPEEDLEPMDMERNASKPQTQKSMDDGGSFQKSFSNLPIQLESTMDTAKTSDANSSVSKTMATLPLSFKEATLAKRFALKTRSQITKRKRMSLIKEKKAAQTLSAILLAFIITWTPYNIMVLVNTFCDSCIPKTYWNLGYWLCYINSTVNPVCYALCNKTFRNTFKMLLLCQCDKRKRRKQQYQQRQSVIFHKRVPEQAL

[7] = tested on: calcium channel (diltiazem and verapamil sites); assay: Binding at calcium channels, overall result; design: species or system rat; settings: 10^-5 M
[8] = tested on: guinea pig bladder smooth muscle strips; assay: Potassium-induced contraction of isolated bladder strips (spasmolytic activity)
[9] = Table 10, 137.7 mM K+, 60 min exposure, n = 3, * significantly different from untreated (< 0.01)

Row | SMILES | percent inhibition of specific radioligand binding, Calcium (diltiazem) [1] [%] | IC50 [3] [nM] | inhibition at 0.1 µM [3] [%] | inhibition at 10 µM [4] [%] | inhibition at 0.1 µM [4] [%] | percent inhibition of specific radioligand binding, Calcium (verapamil) [5] [%] | Kb [6] [nM] | Slope (Schild regression) [6] | Mean % pretreatment ± SE (magnitude of contraction induced by 137.7 mM K+ after exposure to compound / before) [8, 9] [%] | also measured
1 | CCNCC#CCOC(=O)[C@@](O)(c1ccccc1)C1CCCCC1.Cl [S-DEO, 4-(Ethylamino)-2-butynyl (S)-α-cyclohexyl-α-hydroxybenzeneacetate hydrochloride salt] | 72 | 177 | 36 | 99 | 43 | 76 | 49 | 0.87 ± 0.11 |  | affinity for muscarinic receptor subtypes (in words) [2]: less affinity for muscarinic receptor subtypes than either R- or racemic DEO; antagonism of bladder muscarinic receptors (in words) ([6]; carbachol-induced contraction): less potent antagonists of bladder muscarinic receptors than are R- and racemic OXY and R- and racemic DEO; calcium entry blocking activity (in words) [7]: calcium entry blocking activity similar to that of R- and racemic DEO
2 | CCNCC#CCOC(=O)[C@](O)(c1ccccc1)C1CCCCC1.Cl [R-DEO, 4-(Ethylamino)-2-butynyl (R)-α-cyclohexyl-α-hydroxybenzeneacetate hydrochloride salt] | 86 | 14.7 | 97 | 99 | 100 | 96 | 0.912 | 1.16 ± 0.11 | 36 ± 5 | inhibition at 10 µM [3]: 102%; inhibition at 0.001 µM ([3]; read-out: percent inhibition of specific radioligand binding M2H 10^-9 M): 21%; inhibition at 0.001 µM [4]: 58%
3 | CCN(CC)CC#CCOC(=O)[C@@](O)(c1ccccc1)C1CCCCC1 [S-OXY, 4-(diethylamino)-2-butynyl α-cyclohexyl-α-hydroxybenzeneacetate] |  |  |  |  |  |  |  |  |  | Mean % pretreatment ± SE (magnitude of contraction induced by 137.7 mM K+ after exposure to compound / before) ([8]; guinea pig, bladder strips, 60 min): 26 ± 9%
4 | CCN(CC)CC#CCOC(=O)[C@](O)(c1ccccc1)C1CCCCC1 [R-OXY, reference compound] |  |  |  |  |  |  |  |  | 32 ± 8 | 
5 | COc1ccc([C@@H]2Sc3ccccc3N(CCN(C)C)C(=O)[C@@H]2OC(C)=O)cc1 [diltiazem, reference compound] |  |  |  |  |  |  |  |  |  | IC50 ([1]; Table 5, reference compound, 8 concentrations, read-out: Ref. Compound IC50, Calcium (diltiazem)): 55.8 nM
6 | COc1ccc(CCN(C)CCCC(C#N)(c2cc(OC)c(OC)c(OC)c2)C(C)C)cc1OC (racemic) [D600, reference compound] |  |  |  |  |  |  |  |  |  | IC50 ([5]; Table 5, reference compound, 8 concentrations, read-out: Ref. Compound IC50, Calcium (verapamil)): 36.4 nM
7 | CCN(CC)CC#CCOC(=O)C(O)(c1ccccc1)C1CCCCC1 (racemic) [RS-OXY, 4-(diethylamino)-2-butynyl α-cyclohexyl-α-hydroxybenzeneacetate, reference compound] |  |  |  |  |  |  |  |  | 20 ± 1 | 
8 | CCNCC#CCOC(=O)C(O)(c1ccccc1)C1CCCCC1.Cl (racemic) [RS-DEO, 4-(Ethylamino)-2-butynyl α-cyclohexyl-α-hydroxybenzeneacetate hydrochloride salt] | 88 | 7 | 94 | 95 | 99 | 89 | 2.82 | 1.35 ± 0.25 | 47 ± 8 | inhibition at 10 µM [3]: 99%; inhibition at 0.001 µM [4]: 34%
